Reference: patent publication US20260201008A1, “SECRETIN-DERIVED GLP1R SELECTIVE AGONISTS” (GUBRA A/S, priority 2023, published 2026)
Read-outs that look alike come from different tables or passages of the source. Numbered stars: 1 amine (or outer) side, 2 acyl side, 3 side chain; on linkers, the order of the positions; unused ones are H or OH. Square brackets hold non-standard residues; d marks the D form. Side chains are listed from the residue outwards. Peptide text beside a SMILES is read from it. * marks the point of attachment. C20 diacid = O=C(O)CCCCCCCCCCCCCCCCCCC(=O)*; γGlu = O=C(O)[C@H](CCC(=O)[*:2])N[*:1]; AEEA = NCCOCCOCC(=O)O; Aib = CC(C)(N)C(=O)O

Key:
[1] = Turbidity of crude library peptides (absorbance at 600 nm); assay type: physicochemical; details: Physical stability of peptides
Procedure, shortened: (§1)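 Crude peptides at 267 μM in 50 mM sodium acetate pH 4.0 or 50 mM sodium phosphate pH 7.0, pre-incubated 1-2 h at room temperature, then 4 μM final ThT added. Turbidity read first as A600. ThT fluorescence (ex 450/em 480 nm) read every 10 min for 72 h at 40° C, with 5 min shaking before each read; fibril formation = average emission.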

[2] = Fibril formation of crude library peptides (Thioflavin T); assay type: physicochemical; parameters: key: average ThT fluorescence emission at 480 nm (ex 450 nm), raw units; details: Physical stability of peptides
Procedure, shortened: as §1

[3] = target: GLP1R (Homo sapiens, UniProt P43220); assay: hGLP1R potency, cAMP accumulation in CHO-K1 cells stably overexpressing hGLP1R; assay type: cell-based; parameters: host or cells: CHO-K1; details: for EC50: cAMP accumulation, CHO-K1 cells overexpressing hGLP1R; for SCTR EC50/GLP1R EC50 ratio: selectivity for hGLP1R over hSCTR, cAMP accumulation in CHO-K1 cells; for Selectivity: SCTR EC50/GLP1R EC50 ratio
Procedure, shortened: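 Thawed cells go straight into buffer containing 0.5 mM IBMX and 0.05% casein, get graded compound doses for 30 min at room temperature, and are then assayed for accumulated cAMP by time-resolved FRET. Human GLP-1(7-36) serves as positive control; EC50 is derived by nonlinear regression.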

[4] = target: SCTR (Homo sapiens, UniProt P47872); assay: hSCTR potency, cAMP accumulation in CHO-K1 cells stably overexpressing hSCTR; assay type: cell-based; parameters: alternatively Euroscreen ES-712-AF; FAST-0161L; host or cells: CHO-K1; details: cAMP accumulation, CHO-K1 cells overexpressing hSCTR
Procedure, shortened: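 Read-out is TR-FRET cAMP detection, recorded one hour after reagent addition, in CHO-K1 cells stably overexpressing hSCTR. Cells in DPBS containing 0.05% casein and 0.5 mM IBMX are exposed to graded peptide doses for 30 min at room temperature, with human secretin as reference agonist.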

[5] = read-out: hGLP1R pEC50 (converted)
[6] = read-out: hSCTR pEC50 (converted)
[7] = read-out: pEC50 hGLPR1 (converted)
[8] = read-out: pEC50 hSCTR (converted)

Sequence of GLP1R (P43220 24-463): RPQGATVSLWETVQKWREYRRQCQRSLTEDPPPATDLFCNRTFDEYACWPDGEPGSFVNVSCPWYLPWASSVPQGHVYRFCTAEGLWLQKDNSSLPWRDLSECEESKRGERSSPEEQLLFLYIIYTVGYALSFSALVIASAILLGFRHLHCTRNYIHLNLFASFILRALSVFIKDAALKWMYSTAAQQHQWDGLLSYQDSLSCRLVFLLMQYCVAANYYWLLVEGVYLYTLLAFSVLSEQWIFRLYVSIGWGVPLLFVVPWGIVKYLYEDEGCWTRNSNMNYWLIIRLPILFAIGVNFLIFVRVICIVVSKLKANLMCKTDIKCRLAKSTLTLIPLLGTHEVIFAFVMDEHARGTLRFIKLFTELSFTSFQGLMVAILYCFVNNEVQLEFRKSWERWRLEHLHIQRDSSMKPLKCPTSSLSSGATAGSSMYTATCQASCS
Sequence of SCTR (P47872 23-440): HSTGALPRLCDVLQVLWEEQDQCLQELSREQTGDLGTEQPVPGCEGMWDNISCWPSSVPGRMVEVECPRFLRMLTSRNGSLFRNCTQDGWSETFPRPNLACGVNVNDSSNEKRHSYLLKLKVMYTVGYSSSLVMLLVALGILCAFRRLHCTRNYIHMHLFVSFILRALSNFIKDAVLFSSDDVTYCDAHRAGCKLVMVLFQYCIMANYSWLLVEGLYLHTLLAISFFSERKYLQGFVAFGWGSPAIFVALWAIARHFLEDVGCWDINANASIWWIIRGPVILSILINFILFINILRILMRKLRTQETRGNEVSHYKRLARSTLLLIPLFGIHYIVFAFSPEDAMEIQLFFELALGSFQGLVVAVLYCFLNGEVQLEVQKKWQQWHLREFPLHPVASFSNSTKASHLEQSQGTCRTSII

In the case of `CC(C)C[C@H](NC(=O)[C@H](Cc1ccccc1)NC(=O)[C@H](CCCNC(=N)N)NC(=O)[C@H](CCC(N)=O)NC(=O)[C@H](C)NC(=O)C(C)(C)NC(=O)[C@H](C)NC(=O)[C@H](CCC(=O)O)NC(=O)[C@H](CCC(=O)O)NC(=O)[C@H](CCCCNC(=O)COCCOCCNC(=O)COCCOCCNC(=O)CC[C@H](NC(=O)CCCCCCCCCCCCCCCCCCC(=O)O)C(=O)O)NC(=O)[C@H](CC(C)C)NC(=O)[C@H](Cc1ccc(O)cc1)NC(=O)[C@H](CO)NC(=O)[C@@H](NC(=O)[C@H](CC(=O)O)NC(=O)[C@H](CO)NC(=O)[C@@H](NC(=O)[C@H](Cc1ccccc1)NC(=O)[C@@H](NC(=O)CNC(=O)[C@H](CCC(=O)O)NC(=O)C(C)(C)NC(=O)[C@@H](N)Cc1c[nH]cn1)[C@@H](C)O)[C@@H](C)O)C(C)C)C(=O)N[C@@H](CCC(=O)O)C(=O)N[C@@H](Cc1c[nH]cn1)C(=O)N[C@@H](CC(C)C)C(=O)N[C@H](C(N)=O)C(C)C` [compound 146] (H-H[Aib]EGTFTSDVSYLK([AEEA-AEEA-γGlu-C20 diacid])EEA[Aib]AQRFLEHLV-NH2), the “Turbidity (pH 7)” value [1] is reported as 0.08, the Fibril formation [2] is reported as 3918 and the EC50 [3, 5] is reported as 0.00251 nM. For the same compound, the “SCTR EC50/GLP1R EC50 ratio” value [3] was 789678 and the EC50 [4, 6] was 2000 nM.

In the case of `CC(C)C[C@H](NC(=O)[C@H](Cc1ccccc1)NC(=O)[C@H](CCCNC(=N)N)NC(=O)[C@H](CCC(N)=O)NC(=O)[C@H](CCC(N)=O)NC(=O)[C@H](C)NC(=O)[C@H](C)NC(=O)C(C)(C)NC(=O)[C@H](CCC(=O)O)NC(=O)[C@H](CCCCNC(=O)COCCOCCNC(=O)COCCOCCNC(=O)CC[C@H](NC(=O)CCCCCCCCCCCCCCCCCCC(=O)O)C(=O)O)NC(=O)[C@H](CC(C)C)NC(=O)[C@@H](NC(=O)[C@H](CO)NC(=O)[C@@H](NC(=O)[C@H](CC(=O)O)NC(=O)[C@H](CO)NC(=O)[C@@H](NC(=O)[C@H](Cc1ccccc1)NC(=O)[C@@H](NC(=O)CNC(=O)[C@H](CCC(=O)O)NC(=O)C(C)(C)NC(=O)[C@@H](N)Cc1c[nH]cn1)[C@@H](C)O)[C@@H](C)O)C(C)C)[C@@H](C)O)C(=O)N[C@@H](CCC(=O)O)C(=O)N[C@@H](Cc1c[nH]cn1)C(=O)N[C@@H](CC(C)C)C(=O)N[C@H](C(N)=O)C(C)C` [compound 88] (H-H[Aib]EGTFTSDVSTLK([AEEA-AEEA-γGlu-C20 diacid])E[Aib]AAQQRFLEHLV-NH2), the “Turbidity (pH 7)” value [1] is reported as 0.08, the Fibril formation [2] is reported as 10893 and the EC50 [3, 5] is reported as 0.00398 nM. For the same compound, the “SCTR EC50/GLP1R EC50 ratio” value [3] was 42658 and the EC50 [4, 6] was 158 nM.

With `CC(C)C[C@H](NC(=O)[C@H](Cc1ccccc1)NC(=O)[C@H](CCCNC(=N)N)NC(=O)[C@H](CCC(N)=O)NC(=O)[C@H](CCC(N)=O)NC(=O)[C@H](C)NC(=O)[C@H](C)NC(=O)[C@H](CCC(=O)O)NC(=O)[C@H](CCC(=O)O)NC(=O)[C@H](CCCCNC(=O)COCCOCCNC(=O)COCCOCCNC(=O)CC[C@H](NC(=O)CCCCCCCCCCCCCCCCCCC(=O)O)C(=O)O)NC(=O)[C@H](CC(C)C)NC(=O)[C@H](Cc1ccccc1)NC(=O)[C@H](CO)NC(=O)[C@@H](NC(=O)[C@H](CC(=O)O)NC(=O)[C@H](CO)NC(=O)[C@@H](NC(=O)[C@H](Cc1ccccc1)NC(=O)[C@@H](NC(=O)CNC(=O)[C@H](CCC(=O)O)NC(=O)C(C)(C)NC(=O)[C@@H](N)Cc1c[nH]cn1)[C@@H](C)O)[C@@H](C)O)C(C)C)C(=O)N[C@@H](CCC(=O)O)C(=O)N[C@@H](Cc1c[nH]cn1)C(=O)N[C@@H](CC(C)C)C(=O)N[C@H](C(N)=O)C(C)C` [compound 83] (H-H[Aib]EGTFTSDVSFLK([AEEA-AEEA-γGlu-C20 diacid])EEAAQQRFLEHLV-NH2) the “Turbidity (pH 7)” value [1] was 0.08, the Fibril formation [2] was 9070 and the Selectivity [3] was 54828. For the same compound, the EC50 [3, 7] was 0.0316 nM and the EC50 [4, 8] was 1580 nM.

In the case of `CC(C)C[C@H](NC(=O)[C@H](Cc1ccccc1)NC(=O)[C@H](CCCNC(=N)N)NC(=O)[C@H](CCC(N)=O)NC(=O)[C@H](C)NC(=O)[C@H](C)NC(=O)[C@H](C)NC(=O)C(C)(C)NC(=O)[C@H](CCC(=O)O)NC(=O)[C@H](CCCCNC(=O)COCCOCCNC(=O)COCCOCCNC(=O)CC[C@H](NC(=O)CCCCCCCCCCCCCCCCCCC(=O)O)C(=O)O)NC(=O)[C@H](CC(C)C)NC(=O)[C@H](CCCNC(=N)N)NC(=O)[C@H](CO)NC(=O)[C@@H](NC(=O)[C@H](CC(=O)O)NC(=O)[C@H](CO)NC(=O)[C@@H](NC(=O)[C@H](Cc1ccccc1)NC(=O)[C@@H](NC(=O)CNC(=O)[C@H](CCC(=O)O)NC(=O)C(C)(C)NC(=O)[C@@H](N)Cc1c[nH]cn1)[C@@H](C)O)[C@@H](C)O)C(C)C)C(=O)N[C@@H](CCC(=O)O)C(=O)N[C@@H](Cc1c[nH]cn1)C(=O)N[C@@H](CC(C)C)C(=O)N[C@H](C(N)=O)C(C)C` [compound 81] (H-H[Aib]EGTFTSDVSRLK([AEEA-AEEA-γGlu-C20 diacid])E[Aib]AAAQRFLEHLV-NH2), the “Turbidity (pH 7)” value [1] is reported as 0.08, the Fibril formation [2] is reported as 10620 and the Selectivity [3] is reported as 1217. For the same compound, the EC50 [3, 7] was 0.0794 nM and the EC50 [4, 8] was 79.4 nM.

In the case of `CC(C)C[C@H](NC(=O)[C@H](Cc1ccccc1)NC(=O)[C@H](CCCNC(=N)N)NC(=O)[C@H](CCC(N)=O)NC(=O)[C@@H](NC(=O)C(C)(C)NC(=O)[C@H](C)NC(=O)[C@H](CCC(=O)O)NC(=O)[C@H](CCC(=O)O)NC(=O)[C@H](CCCCNC(=O)COCCOCCNC(=O)COCCOCCNC(=O)CC[C@H](NC(=O)CCCCCCCCCCCCCCCCCCC(=O)O)C(=O)O)NC(=O)[C@H](CC(C)C)NC(=O)[C@H](Cc1ccc(O)cc1)NC(=O)[C@H](CO)NC(=O)[C@@H](NC(=O)[C@H](CC(=O)O)NC(=O)[C@H](CO)NC(=O)[C@@H](NC(=O)[C@H](Cc1ccccc1)NC(=O)[C@@H](NC(=O)CNC(=O)[C@H](CCC(=O)O)NC(=O)C(C)(C)NC(=O)[C@@H](N)Cc1c[nH]cn1)[C@@H](C)O)[C@@H](C)O)C(C)C)C(C)C)C(=O)N[C@@H](CCC(=O)O)C(=O)N[C@@H](Cc1c[nH]cn1)C(=O)N[C@@H](CC(C)C)C(=O)N[C@H](C(N)=O)C(C)C` [compound 161] (H-H[Aib]EGTFTSDVSYLK([AEEA-AEEA-γGlu-C20 diacid])EEA[Aib]VQRFLEHLV-NH2), the “Turbidity (pH 7)” value [1] is reported as 0.08, the Fibril formation [2] is reported as 3973 and the EC50 [3, 5] is reported as 0.00398 nM. The “SCTR EC50/GLP1R EC50 ratio” value [3] was 42442 and the EC50 [4, 6] was 158 nM.

With `CC(C)C[C@H](NC(=O)[C@H](Cc1ccccc1)NC(=O)[C@H](CCCNC(=N)N)NC(=O)[C@H](CCC(N)=O)NC(=O)C(C)(C)NC(=O)[C@H](C)NC(=O)[C@H](C)NC(=O)[C@@H](NC(=O)[C@H](CCC(=O)O)NC(=O)[C@H](CCCCNC(=O)COCCOCCNC(=O)COCCOCCNC(=O)CC[C@H](NC(=O)CCCCCCCCCCCCCCCCCCC(=O)O)C(=O)O)NC(=O)[C@H](CC(C)C)NC(=O)[C@H](CCC(=O)O)NC(=O)[C@H](CO)NC(=O)[C@@H](NC(=O)[C@H](CC(=O)O)NC(=O)[C@H](CO)NC(=O)[C@@H](NC(=O)[C@H](Cc1ccccc1)NC(=O)[C@@H](NC(=O)CNC(=O)[C@H](CCC(=O)O)NC(=O)C(C)(C)NC(=O)[C@@H](N)Cc1c[nH]cn1)[C@@H](C)O)[C@@H](C)O)C(C)C)[C@@H](C)O)C(=O)N[C@@H](CCC(=O)O)C(=O)N[C@@H](Cc1c[nH]cn1)C(=O)N[C@@H](CC(C)C)C(=O)N[C@H](C(N)=O)C(C)C` [compound 45] (H-H[Aib]EGTFTSDVSELK([AEEA-AEEA-γGlu-C20 diacid])ETAA[Aib]QRFLEHLV-NH2) the “Turbidity (pH 7)” value [1] was 0.09, the Fibril formation [2] was 14290 and the Selectivity [3] was 86896. It also gave an EC50 [3, 7] of 0.02 nM and an EC50 [4, 8] of 2000 nM.

With `CC(C)C[C@H](NC(=O)[C@H](Cc1ccccc1)NC(=O)[C@H](CCCNC(=N)N)NC(=O)[C@H](CCC(N)=O)NC(=O)[C@H](CCC(N)=O)NC(=O)[C@H](C)NC(=O)[C@H](C)NC(=O)[C@H](Cc1ccccc1)NC(=O)[C@H](CCC(=O)O)NC(=O)[C@H](CCCCNC(=O)COCCOCCNC(=O)COCCOCCNC(=O)CC[C@H](NC(=O)CCCCCCCCCCCCCCCCCCC(=O)O)C(=O)O)NC(=O)[C@H](CC(C)C)NC(=O)[C@H](CCCNC(=N)N)NC(=O)[C@H](CO)NC(=O)[C@@H](NC(=O)[C@H](CC(=O)O)NC(=O)[C@H](CO)NC(=O)[C@@H](NC(=O)[C@H](Cc1ccccc1)NC(=O)[C@@H](NC(=O)CNC(=O)[C@H](CCC(=O)O)NC(=O)C(C)(C)NC(=O)[C@@H](N)Cc1c[nH]cn1)[C@@H](C)O)[C@@H](C)O)C(C)C)C(=O)N[C@@H](CCC(=O)O)C(=O)N[C@@H](Cc1c[nH]cn1)C(=O)N[C@@H](CC(C)C)C(=O)N[C@H](C(N)=O)C(C)C` [compound 24] (H-H[Aib]EGTFTSDVSRLK([AEEA-AEEA-γGlu-C20 diacid])EFAAQQRFLEHLV-NH2) the “Turbidity (pH 7)” value [1] was 0.08, the Fibril formation [2] was 221619 and the Selectivity [3] was 2998. It also gave an EC50 [3, 7] of 0.0501 nM and an EC50 [4, 8] of 158 nM.
